In brackets after ≈: the same amount, converted by molar mass. Read-outs that look alike come from different tables or passages of the source.
Experiments:
[1] = Rat Hepatocyte Stability (Test E); assay type: in vitro ADME; settings: rat, hepatocytes, geometric mean if run multiple times
Procedure, shortened: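 Run per the published AstraZeneca-type rat hepatocyte stability protocol (Wernevik et al. panel). Values are mean intrinsic clearance, Clint in μl/min/10^6 cells; geometric mean used for repeated runs.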

[2] = Human Hepatocyte Stability (Test D); assay type: in vitro ADME; settings: human, cryopreserved pooled human hepatocytes (LiverPool 10-Donor), geometric mean if run multiple times
Procedure, shortened: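 Pooled 10-donor cryopreserved human hepatocytes (≥80% viable) in L-15 medium at 0.25×10^6 cells per 0.25 mL well. Compound added from 100 μM acetonitrile solution; incubated at 37 °C with shaking, acetonitrile-quenched, LC-MS analysed. Clint (μL/min/10^6 cells) from ln % parent vs time slope; geometric mean of repeat runs.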

Solubility (Test F) = assay type: physicochemical; settings: arithmetic mean if run multiple times
Method: The assay was conducted according to the Solubility Assay described in pages 164-167 of Wernevik, J. et al., “A Fully Integrated Assay Panel for Early Drug Metabolism and Pharmacokinetics Profiling”, Assay and Drug Development Technologies, 2020, 18(4), 157-179. Data are reported in Table 36 as solubility ([…]. Where the assay was run multiple times for the same compound, the arithmetic mean is reported.

[3] = Human Liver Microsomal Stability (Test C); assay type: in vitro ADME; settings: human, liver microsomes
Procedure, shortened: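 Human liver microsome incubation per the Wernevik et al. integrated DMPK panel protocol. Intrinsic clearance reported as CLint in μl/min/mg protein, averaged arithmetically over repeat runs.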

[4] = Human Plasma Protein Binding (Test B); assay type: in vitro ADME; settings: fraction unbound (fu)
Procedure, shortened: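 Human plasma protein binding run per the published Wernevik et al. (2020) integrated DMPK panel protocol. Values are fraction unbound (fu, % free); repeat runs averaged arithmetically.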

human RXFP1 = biological target: T1, human RXFP1 (Homo sapiens, UniProt Q9HBX9); assay: RXFP1 Hu cAMP (Test A); assay type: cell-based; design: expressed in transfected cells; host or cells: Jump-In T-REx CHO-K1 cells (ThermoFisher), induced with 10 ng/ml doxycycline for 24 h
T1 sequence (Q9HBX9 1-757): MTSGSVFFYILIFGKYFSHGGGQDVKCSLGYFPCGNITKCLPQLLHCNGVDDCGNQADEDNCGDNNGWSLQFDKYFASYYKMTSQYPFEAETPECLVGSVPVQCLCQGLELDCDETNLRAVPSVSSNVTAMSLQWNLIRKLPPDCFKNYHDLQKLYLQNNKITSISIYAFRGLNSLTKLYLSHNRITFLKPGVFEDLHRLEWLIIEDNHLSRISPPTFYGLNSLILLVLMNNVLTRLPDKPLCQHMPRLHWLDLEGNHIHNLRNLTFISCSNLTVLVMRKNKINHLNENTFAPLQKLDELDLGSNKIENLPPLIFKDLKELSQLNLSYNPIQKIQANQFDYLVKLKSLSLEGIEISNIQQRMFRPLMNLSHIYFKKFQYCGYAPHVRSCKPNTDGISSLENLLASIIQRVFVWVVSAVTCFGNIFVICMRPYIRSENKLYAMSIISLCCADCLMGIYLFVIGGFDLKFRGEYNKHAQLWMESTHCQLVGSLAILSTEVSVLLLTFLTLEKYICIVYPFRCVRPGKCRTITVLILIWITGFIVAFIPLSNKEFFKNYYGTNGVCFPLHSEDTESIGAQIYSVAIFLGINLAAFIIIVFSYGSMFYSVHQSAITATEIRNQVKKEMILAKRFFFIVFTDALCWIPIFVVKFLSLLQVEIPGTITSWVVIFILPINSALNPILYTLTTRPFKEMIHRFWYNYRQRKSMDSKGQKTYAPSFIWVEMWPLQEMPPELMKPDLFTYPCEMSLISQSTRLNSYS
Procedure, shortened: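 Competitive HTRF cAMP readout (2 h, room temperature) in CHO-K1 cells stably expressing human RXFP1, induced with 10 ng/ml doxycycline for 24 h; IBMX 0.5 mM final.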

[5] = RXFP1 Hu cAMP, read-out: Test A EC50

hepatocyte CLint [1] | hepatocyte CLint at 1 µM [2] | solubility (Solubility (Test F)) | microsomal CLint [3] | Test B Human Plasma Protein Binding (% free) [4] | Test A Sinf (human RXFP1; RXFP1 Hu cAMP) | EC50 (human RXFP1; [5]) | Compound | EC50 (human RXFP1; Test A EC50, RXFP1 Hu cAMP)
19 µL/min/1e6 cells | 8 µL/min/1e6 cells | 780 µM (≈ 436 µg/mL) | 50 µL/min/mg | 4.1 % free | 106% |  | CCOc1cc(F)c(O[C@H]2CC[C@@](C)(C(=O)O)CC2)cc1C(=O)N[C@@H]1[C@H]2CC[C@H](C2)[C@@H]1C(=O)NCC1(C)CCC1 [Example 385] | 
14 µL/min/1e6 cells | < 1 µL/min/1e6 cells | 1000 µM (≈ 579 µg/mL) | < 3 µL/min/mg | 24 % free | 87% | > 1900 nM | COc1cc(F)c(O[C@H]2CC[C@@](C)(C(=O)O)CC2)cc1C(=O)N[C@@H]1[C@H]2CC[C@H](C2)[C@@H]1C(=O)NCC1(F)CCOCC1 [Example 146, (1S,4s)-4-(2-Fluoro-5-(((1S,2R,3S,4R)-3-(((4-fluorotetrahydro-2H-pyran-4-yl)methyl)carbamoyl)bicyclo[2.2.1]heptan-2-yl)carbamoyl)-4-methoxyphenoxy)-1-methylcyclohexane-1-carboxylic acid] | 
19 µL/min/1e6 cells | 1.9 µL/min/1e6 cells | > 1000 µM | 6.5 µL/min/mg | 7 % free | 99% | 260 nM | CCC(C)(C)CNC(=O)[C@H]1CCC[C@H]1NC(=O)c1cc(O[C@H]2CC[C@@](C)(C(=O)O)CC2)c(F)cc1OC [Example 58, (1S,4s)-4-(5-(((1R,2S)-2-((2,2-Dimethylbutyl)carbamoyl)cyclopentyl)carbamoyl)-2-fluoro-4-methoxyphenoxy)-1-methylcyclohexane-1-carboxylic acid] | 
13 µL/min/1e6 cells | 5 µL/min/1e6 cells | 990 µM (≈ 654 µg/mL) | 22 µL/min/mg | 2.1 % free | 95% | 130 nM | COc1cc(F)c(O[C@H]2CC[C@@](C)(C(=O)O)CC2)cc1C(=O)NC1CCOCC1C(=O)Nc1cccc(S(=O)(=O)C(F)(F)F)c1 (single isomer, unassigned) [Example 518, (1R,4s)-4-(2-Fluoro-4-methoxy-5-(((3S*,4S*)-3-((3-((trifluoromethyl)sulfonyl)phenyl)carbamoyl)tetrahydro-2H-pyran-4-yl)carbamoyl)phenoxy)-1-methylcyclohexane-1-carboxylic acid] | 
8.2 µL/min/1e6 cells | 3.4 µL/min/1e6 cells | 880 µM (≈ 481 µg/mL) | 20 µL/min/mg | 3.5 % free | 115% | 75 nM | COc1cc(F)c(O[C@H]2CC[C@@](C)(C(=O)O)CC2)cc1C(=O)N[C@@H]1[C@H]2CC[C@H](C2)[C@@H]1C(=O)NC12CC(F)(C1)C2 [Example 608] | 
7.9 µL/min/1e6 cells | 3.3 µL/min/1e6 cells | 1000 µM (≈ 594 µg/mL) | 16 µL/min/mg | 12 % free | 113% | 26 nM | COc1cc(C#N)c(O[C@H]2CC[C@@](C)(C(=O)O)CC2)cc1C(=O)N[C@@H]1[C@H]2CC[C@H](C2)[C@@H]1C(=O)NCC(C)(C)C(F)(F)F [Example 624] | 

Second part, the compound before the results:

Compound | hepatocyte CLint [1] | hepatocyte CLint at 1 µM [2] | solubility (Solubility (Test F)) | microsomal CLint [3] | Test B Human Plasma Protein Binding (% free) [4] | Test A Sinf (human RXFP1; RXFP1 Hu cAMP) | EC50 (human RXFP1; [5]) | EC50 (human RXFP1; Test A EC50, RXFP1 Hu cAMP)
COc1cc(F)c(-c2ccc(C[C@@H](C(=O)O)N(C)C)cc2)cc1C(=O)N[C@@H]1[C@H]2CC[C@H](C2)[C@@H]1C(=O)Nc1cccc(S(=O)(=O)C(F)(F)F)c1 (racemic) [Example 289, (S)-2-(Dimethylamino)-3-(2′-fluoro-4′-methoxy-5′-(((1RS,2SR,3RS,4SR)-3-((3-((trifluoromethyl)sulfonyl)phenyl)carbamoyl)bicyclo[2.2.1]heptan-2-yl)carbamoyl)-[1,1′-biphenyl]-4-yl)propanoic acid] | 11 µL/min/1e6 cells | 7.2 µL/min/1e6 cells | 36 µM (≈ 25.4 µg/mL) | 21 µL/min/mg | 1 % free | 112% | 470 nM | 
COc1cc(F)c(-c2ncc(CCC(=O)O)cn2)cc1C(=O)N[C@@H]1[C@H]2CC[C@H](C2)[C@@H]1C(=O)Nc1cccc(S(=O)(=O)C(F)(F)F)c1 [Example 323, 3-(2-(2-Fluoro-4-methoxy-5-(((1S,2R,3S,4R)-3-((3-((trifluoromethyl)sulfonyl)phenyl)carbamoyl)bicyclo[2.2.1]heptan-2-yl)carbamoyl)phenyl)pyrimidin-5-yl)propanoic acid] | 21 µL/min/1e6 cells | 16 µL/min/1e6 cells | 850 µM (≈ 565 µg/mL) | 58 µL/min/mg | 9.3 % free | 108% | 420 nM | 
CC1(CNC(=O)[C@H]2[C@@H]3CC[C@@H](C3)[C@H]2NC(=O)c2cc(O[C@H]3CC[C@@](C)(C(=O)O)CC3)c(C#N)cc2F)CCC1 [Example 401] | 17 µL/min/1e6 cells | 5.4 µL/min/1e6 cells | 1000 µM (≈ 540 µg/mL) | 16 µL/min/mg | 2.7 % free | 115% |  | 49 nM
COc1cc(F)c(-c2ccc(CC(=O)O)cc2)cc1C(=O)N[C@@H]1CCC[C@@H]1C(=O)Nc1cccc(S(=O)(=O)C(F)(F)F)c1 [Example 320] | 9.6 µL/min/1e6 cells | 11 µL/min/1e6 cells | > 1000 µM | 14 µL/min/mg | 0.67 % free | 119% | 460 nM | 
COc1cc(F)c(O[C@H]2CC[C@@](C)(C(=O)O)CC2)cc1C(=O)N[C@@H]1[C@H]2CC[C@H](C2)[C@@H]1C(=O)N[C@@H]1CCN(S(=O)(=O)C(F)(F)F)C1 [Example 605] | 12 µL/min/1e6 cells | 4.3 µL/min/1e6 cells | 890 µM (≈ 591 µg/mL) | 25 µL/min/mg | 8.6 % free | 106% | 79 nM | 
COc1cc(F)c(-c2ccc(C(=O)O)cc2)cc1C(=O)N[C@@H]1[C@H]2CC[C@H](C2)[C@@H]1C(=O)Nc1cccc(S(=O)(=O)C(F)(F)F)c1 [Example 250] | 18 µL/min/1e6 cells | 32 µL/min/1e6 cells | 900 µM (≈ 571 µg/mL) | 16 µL/min/mg | <0.32 % free | 101% | 190 nM | 
COc1cc(F)c(-c2ccc(F)c(C(=O)O)c2)cc1C(=O)N[C@H]1[C@@H](C(=O)Nc2cccc(S(=O)(=O)C(F)(F)F)c2)[C@@H]2C=C[C@H]1C2 (racemic) [Example 231] | 13 µL/min/1e6 cells | 7.7 µL/min/1e6 cells | 17 µM (≈ 11.1 µg/mL) | < 3 µL/min/mg | <0.31 % free | 112% | 480 nM | 
COc1cc(F)c(O[C@H]2CC[C@@H](C(=O)O)CC2)cc1C(=O)N[C@H]1[C@@H](C(=O)Nc2ccc(F)c(C(F)(F)F)c2)[C@@H]2C=C[C@H]1C2 (single isomer, unassigned) [Example 498] | 17 µL/min/1e6 cells | 7.7 µL/min/1e6 cells | > 980 µM | 23 µL/min/mg | 0.86 % free | 113% | > 30 nM | 
